The test system of experiment [1] is coronary arteries (Langendorff's isolated heart). The experiment in a line: Langendorff's isolated heart preparation (dilation of coronary arteries). Here is the method:
In addition to their utility in the treatment of hypertension, the compounds of formula (I) are useful in the treatment of the symptoms of angina pectoris by virtue of their ability to dilate coronary arteries. Their activity was measured using the "Langendorff's isolated heart" preparation. This test has been described in "Pharmacological Experiments on Isolated Preparations". Staff of the Department of Pharmacology, University of Edinbourgh, 2nd Ed., Churchill Livingstone, N.Y., 1970, pp. 112-119. The test compounds were administered at concentrations of 30.0, 10.0, 3.0, 1.0, 0.3, 0.1, 0.03, and 0.01 micromolar (10^-6 molar).

For a further experiment, the system named is Mongrel dogs. The experiment in a line: Myocardial Oxygen Supply and Demand (dog) Test. The experiment is classed as in vivo. Conditions: i.v., anesthetized dog; for increasing coronary blood flow: p<0.05. Here is the method: The activity of compounds of formula (I) in the treatment of angina was also determined using the Myocardial Oxygen Supply and Demand (dog) Test as described below.
Mongrel dogs of either sex weighing between 8.4 and 12.3 kg were used for this study. These dogs were obtained from Haycock Farm, Quakertown, PA. They were anesthetized with pentabarbitol Na and ventilated with a Harvard positive pressure respirator (Model 607 , Dover, MA) to maintain their blood pH and gaseous tension within physiological ranges. Heparin-filled polyethylene catheters were implanted into the right femoral artery (PE-260) and the right atrium (PE-180) for the measurement of their respective pressures. The right femoral vein was cannulated with a heparin-filled polyethylene catheter (PE-200) for drug infusion. A thoracotomy was then performed via the left fifth intercostal space. The left circumflex coronary artery was isolated from surrounding fascia and an electromagnetic flow transducer (I.D.=2.0 mm, Gould Statham Inc. Oxnard, CA) placed around it for the measurement of coronary blood flow. A Delmed intravenous catheter (18.5 ga.×8 in., Canton, MA) was inserted into the coronary sinus via a puncture wound made by an 18 ga. needle for coronary venous effluent blood sampling. Arterial oxygen samples were taken from the femoral arterial catheters. Total content of oxygen in whole blood was measured by the Lex-02-Con-TL (Lexington Instruments Corp., Waltham, MA). Myocardial oxygen consumption was estimated by the product of the difference in arterial and coronary sinus oxygen content and coronary blood flow through the left circumflex coronary artery. These techniques have been used extensively to study the effects of calcium channel blockers on myocardial oxygen supply and demand in various animal models. References for these techniques include Jolly, S. R. and Gross, G. J. Effect of FR 7534, A New Calcium Antagonist, On Myocardial Oxygen Demand. Euro. J. Pharm. 54: 289-293, (1979); Ono, H., Ohara, N. and Hashimoto, K. Effect of an Anti-Anginal Drug, Perhexiline, on Myocardial Oxygen Consumption in Anesthetized Open-Chest Dogs Compared With Verapamil and Glyceryl Trinitrate. Jap. Cir. J. 46: 559-567 (1982); and Vater, W. and Schlossman, K. Effects of Nifedipine on the Hemodynamics and Oxygen Consumption of the Heart in Animal Experiments, in: Jatene and Lichtlen, 3rd International Adalat Symposium: New Therapy of Ischemic Heart Disease (Exerpta Medica, Amsterdam, Oxford), p. 33, (1975). Arterial blood pH and gaseous tension were measured by a Corning pH/blood gas analyzer (Model 168, Medfield, MA). Arterial and atrial pressures were measured by connecting their respective catheters to Statham strain-gauge manometers (P23D, Gould Inc., Oxnard, CA). Gould-Statham electromagnetic blood flowmeters (Model SP2202, Oxnard, CA) were used to measure coronary blood flow. Lead II of the EKG was monitored continuously through subcutaneous insertion of stainless steel needle electrodes on the body surface of the animal. The EKG was recorded by a Grass oscillograph (Model 7D, Quincy, MA) with an EKG-pulse pre-amplifier (Model 7P6C) and a Polygraph D.C. driver amplifier (Model 7DAG). All the other recorded variables, i.e., arterial pressure, right atrial pressure and coronary blood flow were recorded by the Grass oscillograph. Coronary vascular resistance was calculated as the quotient of the difference in mean pressure (arterial-right atrial) and left circumflex blood flow. […]

The subject of experiment [2] is spontaneously hypertensive rats. The experiment in a line: Spontaneously Hypertensive Rat (SHR) test, arterial pressure. The class given is in vivo, adult spontaneously hypertensive rats (Charles Rivers). Conditions: SH rats, fall of mean arterial pressure. The protocol:
The activity of compounds of formula (I) for the treatment of hypertension was determined using the Spontaneously Hypertensive Rat (SHR) test as described below. In this test, the arterial pressure of adult spontaneously hypertensive rats (Charles Rivers) is monitored directly via an aortic cannula. The SH rats are anesthetized with an inhalation anesthetic (ether). The left carotid artery is isolated and cannulated. The tip of the cannula is advanced to the aorta and the cannula is exteriorized behind the neck at the level of the scapula. Animals are placed in individual cages and allowed to recover from the anesthetic and are kept unrestrained. The arterial cannula is connected to the pressure transducer which is attached to the recorder. The test compounds are administered to at least 3 rats at doses selected in the range of 0.1 to 100 mg/kg of body weight by intraperitoneal (i.p.) or oral (p.o.) routes of administration. The arterial pressure and heart rate are monitored for a minimum of 24 hr. A test compound is considered to be active as an antihypertensive agent if the mean arterial pressure (MAP) indicates a fall of >15 mm of Hg. Each animal serves as its own control.

Structures can show the parent of a compound that is named as a salt.

What is called EC30 is the concentration at which the effect reaches the 30% level. A higher EC30 goes with weaker potency. Compound `CC1(COCC(CN(Cc2ccccc2)c2c(Cl)cccc2Cl)N2CCCC2)CCCCC1.Cl` (stereo not drawn) [Example 1e, N-(2,6-Dichlorophenyl)-beta-[[(1-methylcyclohexyl)methoxy]methyl]-N-(phenylmethyl)-1-pyrrolidineethanamine hydrochloride(1:1)] had an EC30 in experiment [1] of 4.6 nM. Also, the decreased arterial pressure came to 8% in the experiment with Mongrel dogs (0.25 mg/kg) and 15% in the experiment with Mongrel dogs (0.50 mg/kg). For the same compound, the “increasing coronary blood flow” value with Mongrel dogs (0.25 mg/kg) turned out to be 80%; in the experiment with Mongrel dogs (0.50 mg/kg), 221%. The “myocardial oxygen supply/demand ratio” value with Mongrel dogs (0.25 and 0.50 mg/kg) was “markedly increased”. Also, the “SHR δMAP” value in experiment [2] (dose 30 (mg/kg), po) was -60 mm of Hg.
In the case of `COc1cccc(N(Cc2ccccc2)CC(COCC(C)(C)C)N2CCCC2)c1.O=C(O)/C=C/C(=O)O` (stereo not drawn) [Example 2d, beta-[(2,2-Dimethylpropoxy)methyl]-N-(3-methoxyphenyl)-N-(phenylmethyl)-1-pyrrolidineethanamine (E)-2-Butenedioate (1:1)], the EC30 in experiment [1] came out at 29 nM. In addition, the “SHR δMAP” value in experiment [2] (dose 30 (mg/kg), po) was -29 mm of Hg.
In the case of `CC(C)(C)COCC(CN(Cc1ccccc1)c1ccccc1Cl)N1CCCC1.Cl` (stereo not drawn) [Example 3b, N-(2-Chlorophenyl)-beta-[(2,2-dimethylpropoxy)methyl]-N-(phenylmethyl)-1-pyrrolidineethanamine Hydrochloride (1:1)], the 30% effect level in experiment [1] (EC30) was put at 27 nM. In addition, the “SHR δMAP” value in experiment [2] (dose 10 (mg/kg), ip) is -52 mm of Hg; in experiment [2] (dose 30 (mg/kg), po) it was -6 mm of Hg.
In experiment [1], `CN(C)c1ccc(CN(CC(COCC(C)(C)C)N2CCCC2)c2c(Cl)cccc2Cl)cc1` (stereo not drawn) [Example 4c, N-(2,6-Dichlorophenyl)-N-[[4-(dimethylamino)phenyl]methyl]beta-[(2,2-dimethylpropoxy)methyl]-1-pyrrolidineethanamine Hydrochloride Hydrate (7:7:1)] came in with an EC30 of 1.6 nM. For the same compound, the “SHR δMAP” value in experiment [2] (dose 10 (mg/kg), ip) is -23 mm of Hg; in experiment [2] (dose 30 (mg/kg), po), -14 mm of Hg.
Take `COc1ccc(CN(CC(COCC(C)(C)C)N2CCCC2)c2c(Cl)cccc2Cl)cc1OC.Cl` (stereo not drawn) [Example 5, N-(2,6-Dichlorophenyl)-N-[(3,4-dimethoxyphenyl)methyl]-beta-[(2,2-dimethylpropoxy)methyl]-1-pyrrolidineethanamine-Hydrochloride (1:1)]: the 30% effect level in experiment [1] (EC30) was put at 1 nM. Moreover, the “SHR δMAP” value in experiment [2] (dose 30 (mg/kg), po) is -15 mm of Hg.
On the same counts, the results for `CC(C)(C)COCC(CN(Cc1ccccc1)c1c(Cl)cccc1Cl)N1CCCC1` (stereo not drawn) [Example 6, N-(2,6-Dichlorophenyl)-beta-[(2,2-dimethylpropoxy)methyl]-N-(phenylmethyl)-1-pyrrolidineethanamine Hydrochloride (1:1)] are 7.3 nM and -33 mm of Hg.
On the same counts, the results for `CC(C)(C)COCC(CN(Cc1ccncc1)c1c(Cl)cccc1Cl)N1CCCC1.Cl.Cl` (stereo not drawn) [Example 7, N-(2,6-Dichlorophenyl)-beta-[(2,2-dimethylpropoxy)methyl]-N-(4-pyridinylmethyl)-1-pyrrolidineethanamine Dihydrochloride] are 28 nM and -37 mm of Hg.
On the same counts, the results for `Cc1cccc(C)c1N(Cc1ccccc1)CC(COCC(C)(C)C)N1CCCC1.Cl` (stereo not drawn) [Example 8b, N-(2,6-Dimethylphenyl)-beta-[(2,2-dimethylpropoxy)methyl]-N-(phenylmethyl)-1-pyrrolidineethanamine Hydrochloride] are 2.8 nM and -21 mm of Hg.
Take `CC(C)(C)COCC(CN(Cc1ccccc1)c1cccc(C(F)(F)F)c1)N1CCCC1.Cl` (stereo not drawn) [Example 9b, beta-[(2,2-Dimethylpropoxy)methyl]-N-(phenylmethyl)-N-[3-(trifluoromethyl)phenyl]-1-pyrrolidineethanamine Hydrochloride]: in experiment [1], the EC30 was determined as 20 nM. The “SHR δMAP” value in experiment [2] (dose 30 (mg/kg), po) is -28 mm of Hg.
`CC(C)(C)COCC(CN(Cc1ccccc1)c1ccccc1)N1CCCC1` (stereo not drawn) [Example 10, β-[(2,2-Dimethylpropoxy)methyl]-N-phenyl-N-(phenylmethyl)-1-pyrrolidineethanamine (E)-2-Butenedioate (1:1)] gave an EC30 in experiment [1] of 5 nM. The “SHR δMAP” value in experiment [2] (dose 10 (mg/kg), ip) is -28 mm of Hg; in experiment [2] (dose 30 (mg/kg), po), -13 mm of Hg.
The compound `CC(C)(C)COCC(CN(CC1CCCCC1)c1c(Cl)cccc1Cl)N1CCCC1` (stereo not drawn) [Example 12, N-(Cyclohexylmethyl)-N-(2,6-dichlorophenyl)-beta-[(2,2-dimethylpropoxy)methyl]-1-pyrrolidineethanamine (E)-2-Butenedioate Hydrate (20:25:2)] yielded an EC30 in experiment [1] of 3 nM. Also, the “SHR δMAP” value in experiment [2] (dose 30 (mg/kg), po) is recorded as -25 mm of Hg.
The compound `CC(C)(C)OCC(CN(Cc1ccccc1)c1c(Cl)cccc1Cl)N1CCCC1` (stereo not drawn) [Example 13, N-(2,6-Dichlorophenyl)-beta[ (1,1-dimethylethoxy)methyl]-N-(phenylmethyl)-1-pyrrolidineethanamine Hydrochloride (1:1)] showed an EC30 in experiment [1] of 4.3 nM. Moreover, the “SHR δMAP” value in experiment [2] (dose 10 (mg/kg), ip) is recorded as -74 mm of Hg; in experiment [2] (dose 30 (mg/kg), po) it was -20 mm of Hg.
In the case of “N-(2,6-Dichlorophenyl)-N-(phenylmethyl)-alpha-[[(tricyclo-[3.3.1.1^3,7]dec-1-yl)methoxy]methyl]-1-pyrrolidineethanamine Hydrochloride (1:1) [Example 11c]”, the “Langendorff EC30” value in experiment [1] is “.010 10^-6 M”. Besides, in experiment [2] (dose 30 (mg/kg), po), the “SHR δMAP” value is recorded as -41 mm of Hg.

For the origin of these results see patent US4727072A, “3-alkoxy-2-aminopropylamines compositions and use as cardiovascular agents” (McNeilab, Inc., priority 1986, dated 1988).
